# Entries after “also recorded” stand apart in the source; their conditions may differ.
# System: B16 melanoma
# Experiment: Imaging of tumor cell death in B16 melanoma in vivo, fluorescent microscopy
# Parameters: species or system c57/black mice
# Conditions: BiCNU 35 mg/Kg; compound i.v. 1-3 mg/animal after 24 h; tumors removed 2 h later
# Description: Mice bearing B16-melanoma were treated with chemotherapy (BiCNU 35 mg/Kg, one dose), and then injected intravenously with NST920B. Animals were sacrificed two hours later, and the tumor was removed and subjected to fluorescent histopathological assessment, to identify binding of NST920B. Shown is fluorescent microscopic image of a section of the tumor.
# Melanoma tumors were induced in c57/black mice by subcutaneous injection of B16-F10 cell line (ATCC CRL-6475). The cell line was maintained in culture in Dulbecco's modified Eagle's medium (DMEM), supplemented with 4 mM of L-glutamine; 100 units/ml of penicillin; 100 μg/ml of streptomycin; 12.5 units/ml of nystatin and 10% of fetal calf serum (FCS). For tumor induction, 10^5 cells in a volume of 100 μl were injected […] to 8 week-old male mice. 15 days later, when tumor diameter reached 5-6 mm, the mice were treated with chemotherapy (BiCNU, 1,3-bis(2-chloroethyl)-1-nitrosourea, at a single dose of 35 mg/Kg). Twenty-four hours after chemotherapy, the mice were injected intravenously with the compounds of the invention NST920B, NST930 and Re-NST904 (1-3 mg/animal). Two hours later, tumors were removed, frozen in liquid nitrogen, and subjected to cryosection. Evaluation of fluorescent signal was performed using fluorescent microscope.
compound,measurement,value
CN(C)c1cccc2c(S(=O)(=O)N(CCOCCN(CC(=O)O)S(=O)(=O)c3cccc4c(N(C)C)cccc34)CC(=O)O)cccc12 [NST920B],"uptake by viable, non-apoptotic tumor cells, B16 melanoma",did not manifest such uptake
same,"uptake into apoptotic tumor cells, B16 melanoma",Uptake of NST920B into apoptotic cells is demonstrated; also recorded: selective uptake
